Here are results for one molecule from ChEMBL document CHEMBL3832044, “DailyMed|setid=dd8d7ec8-79b0-4152-8789-d247c77232ce | ROSIGLITAZONE MALEATE - rosiglitazone maleate tablet|West-ward Pharmaceutical Corp”.

By CL/F is commonly meant clearance divided by bioavailability, as obtained after extravascular dosing. By half-life is commonly meant the time needed for the level to fall by half in the phase considered. As usually defined, the Cmax is the peak of the concentration-time curve.

Holding throughout (type): ADME, organism-based
Data set [1] is described as follows: (§1) Mean pharmacokinetic parameters for Rosiglitazone following single oral doses to 32 healthy fasted or fed subjects. More on the design: dose 8 mg, dose 2 mg, dose 1 mg, route oral. Particulars: human, in vivo; dietary status Fasting, dose 1 mg, dosed compound id 50, dosed compound name ROSIGLITAZONE, gender male and female, regimen Single dose, route oral, tissue Plasma.

Data set [2] deals with Homo sapiens. The description is as §1. More on the design: dose 8 mg, dose 2 mg, dose 1 mg, route oral. Particulars: in vivo, po, dosed compound id 50, dosed compound name ROSIGLITAZONE, gender male and female, regimen Single dose, tissue Plasma.
The test system of data set [3] is Homo sapiens. The experiment in a line: Oral clearance of Rosiglitazone evaluated after oral or intravenous administration of C-14 Rosiglitazone Maleate. To be noted: in vivo, dosed compound id 5, dosed compound name ROSIGLITAZONE MALEATE.
Setting [4] is: dietary status Fasting, dose 2 mg.
The mark [5] stands for this setting: dietary status Fasting, dose 8 mg.

`CN(CCOc1ccc(CC2SC(=O)NC2=O)cc1)c1ccccn1.O=C(O)/C=C\C(=O)O` (configuration not stated) [ROSIGLITAZONE MALEATE]: the CL/F in data set [1] is 50.5 mL/min; with Homo sapiens [2] (setting [4]), 2.89 L/h; in the data set on Homo sapiens [2] (setting [5]), 2.85 L/h; in the data set on Homo sapiens [2] (dietary status Fed, dose 8 mg), 2.97 L/h. Besides, in data set [1], the half-life is 3.16 h. The t1/2 amounted to 3.15 h in the data set on Homo sapiens [2] (setting [4]); 3.37 h with Homo sapiens [2] (setting [5]); 3.59 h in the data set on Homo sapiens [2] (dietary status Fed, dose 8 mg). Also, the “AUC(0 to inf)” value in the data set on Homo sapiens [2] (dietary status Fed) is 2890 ng·h/mL. This molecule gave a Cmax with Homo sapiens [2] (dietary status Fed) of 432 ng/mL. In addition, the Excretion is given as 23% in the data set with Homo sapiens [3] (tissue Feaces) and 64% in the data set on Homo sapiens [3] (tissue Urine).
